# Results: patent US6569863B1, “Bicyclic heteroamatic compounds useful as LH agonists” (Akzo Nobel NV, priority 1999, dated 2003)
# Assays:
# Leydig cell LH receptor = target: T1, Leydig cell LH receptor (Mus musculus, UniProt P30730); assay: In vitro test for LH bioactivity in mouse Leydig cells (testosterone production); format: cell-based; details: 4 h incubation, testosterone measured by RIA
# T1 construct: Leydig cells are isolated from the testes of mature, 9 to 13 weeks old, mice; from tissue; host or cells: primary Leydig cells from mouse testes (strain HSD/Cpb: S E, Harlan)
# Excerpt: In male mice, the luteinising hormone (LH) induces testosterone production in testicular Leydig cells. […] The in vitro Leydig cell assay (van Damme et al, 1974; modified by Mannaerts et al, 1987) is used to determine the LH bioactivity of compounds that bind to the Leydig cell LH receptor which in turn causes testosterone production.
# For this assay, Leydig cells are isolated from the testes of mature, 9 to 13 weeks old, mice (strain: HSD/Cpb: S E, Harlan, The Netherlands). Therefore, mice are killed and the testes are quickly removed and decapsulated. Each testis is transferred to a separate well of a tissue culture plate containing 0.75 ml culture medium per well. The contents of each well are passed through a 30 cm glass tube (inside diameter 2.5 mm, narrowed to 1.2 mm at 4 places in the middle). The suspension obtained is filtered through a 30 μm nylon mesh and the filtrate is pre-incubated in a 50 ml plastic tube for 30 min. at 37° C. in an incubator in a water-saturated atmosphere of 95% air/5% CO2. Following preincubation the tube is centrifuged at 1600 N/kg for 5 min and the supernatant is decanted. The resulting pellet is resuspended in culture medium (0.5 mg original testis/ml) and the suspension is kept homogeneous by stirring it very slowly on a magnetic stirrer.
# This Leydig cell suspension (100 μl) is added to the wells of a micotiter plate containing 50 μl reference compound, test compound or vehicle (culture medium) per well. As a to reference, LH or hCG in-house standards are used which are calibrated against International Reference preparations of human LH or hCG provided by the National Institute for Biological Standards and Controls (NIBSC, London, UK). Test and reference compounds are dissolved, diluted and assayed in the same culture medium. The plates containing reference and test compounds are incubated for 4 h at 37° C. in an incubator in a water-saturated atmosphere of 95% air/5% CO2. Following incubation, plates are sealed and stored at −20° C. until testosterone measurement.
# Prior to testosterone measurement, the contents of the microtiter plates are thawed at room temperature and the plates are centriged at 150 N/kg for 5 min. An aliquot of 30 μl supernatant of each well is diluted with culture medium (60×) to obtain a suitable dilution for testosterone measurement. Aliquots (12.5 μl) of each diluted test sample are then assayed using a direct testosterone RIA-kit.
# immature female mice = assay: In vivo ovulation induction assay for LH bioactivity in immature female mice; design: species or system mouse; details: 50 mg/kg p.o., FSH-primed immature female mice, 24 h after administration
# Excerpt: In female immature mice which are stimulated with follicle stimulating hormone (FSH), ovulation can be induced by luteininzing hormone (LH) or by human chorionic gonadotrophin (hCG) which binds to the same LH-receptor on the Graafian follicles. Binding to the LH-receptor initiates a biochemical cascade, which eventually results in follicular rupture and extrusion of a mature oocyte. To measure the in vivo activity of LH-agonistic compounds, inunature 20 days old mice (B6D2F1 stain, Broekman Institute, the Netherlands) are primed with unary FSH (Humegon; 12.5 IU/l, 0.1 ml s.c.) to initiate folliculogenesis. Forty-eight hours after FSH treatment test compound, reference compound or vehicle (10% cremophor solution) are administered to the animals. Test compounds (50 mg/kg in 0.1 ml) and vehicle (0.1 ml) are administered p.o., reference compounds (500 IU/kg hCG in 0.1 ml) are injected s.c. As a reference, hCG in-house standards are used which are calibrated against International Reference preparations of human hCG provided by the National Institute for Biological Standards and Controls (NMSC, London, UK). Twenty-four hours after administration of test compound, reference compound or vehicle, animals are killed by cervical dislocation. The oviducts are dissected and collected in 0.9% NaCl. Next, the oviducts are placed between two glass plates and examined for the presence or absence of ovulated ova under a microscope. The number of ovulated ova present in the oviducts is indicative for in vivo LH-bioactivity.
# T1 sequence (P30730 27-700): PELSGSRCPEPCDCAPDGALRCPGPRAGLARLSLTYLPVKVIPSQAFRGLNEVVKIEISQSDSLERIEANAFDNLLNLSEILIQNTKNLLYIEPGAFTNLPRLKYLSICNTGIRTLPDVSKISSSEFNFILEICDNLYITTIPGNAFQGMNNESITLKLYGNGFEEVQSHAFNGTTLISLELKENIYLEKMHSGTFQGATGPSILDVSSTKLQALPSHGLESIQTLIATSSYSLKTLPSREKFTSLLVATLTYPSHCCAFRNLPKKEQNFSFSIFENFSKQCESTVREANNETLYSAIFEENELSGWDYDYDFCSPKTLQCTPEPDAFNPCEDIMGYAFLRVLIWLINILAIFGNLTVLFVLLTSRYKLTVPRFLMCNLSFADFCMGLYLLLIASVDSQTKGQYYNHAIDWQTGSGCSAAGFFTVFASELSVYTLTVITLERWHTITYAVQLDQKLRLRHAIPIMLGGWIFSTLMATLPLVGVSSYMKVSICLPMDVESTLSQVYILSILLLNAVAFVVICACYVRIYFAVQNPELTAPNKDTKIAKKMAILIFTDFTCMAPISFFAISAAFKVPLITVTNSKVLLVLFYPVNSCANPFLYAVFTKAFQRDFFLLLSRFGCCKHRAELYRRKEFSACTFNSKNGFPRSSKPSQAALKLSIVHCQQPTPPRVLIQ
SMILES,EC50 (Leydig cell LH receptor),Mouse in vivo ovulation induction (% ovulating animals) (immature female mice)
"COc1cccc(-c2nc(SC)nc3sc(C(=O)NC(C)(C)C)c(N)c23)c1 [Example 112, tert-Butyl 5-Amino-2-methylthio-4-(3-methoxyphenyl)-thieno[2,3-d]pyrimidine-6-carboxamide]",430 nM,40%
"CSc1nc(-c2cccc(NC(=O)c3ccccc3)c2)c2c(N)c(C(=O)NC(C)(C)C)sc2n1 [Example 111, tert-Butyl 5-Amino-2-methylthio-4-(N-benzoyl-3-aminophenyl)-thieno[2,3-d]pyrimidine-6-carboxamide]",280 nM,40%
"CSc1nc(-c2cccc(OCCCc3cccnc3)c2)c2c(N)c(C(=O)NC(C)(C)C)sc2n1 [Example 117, tert-Butyl 5-Amino-2-methylthio-4-(3-(3-(3-pyridyl)-propoxy)phenyl)-thieno[2,3-d]pyrimidine-6-carboxamide]",1800 nM,40%
"CSc1nc(-c2cccc(NC(=O)CNC(C)(C)C)c2)c2c(N)c(C(=O)NC(C)(C)C)sc2n1 [Example 116, tert-Butyl 5-Amino-2-methylthio-4-(N-(2-(tert-butylamino)acetyl)-3-aminophenyl)-thieno[2,3-d]pyrimidine-6-carboxamide]",320 nM,13%
"COc1cccc(-c2nc(-c3cccs3)nc3sc(C(=O)N4CCOCC4)c(N)c23)c1 [Example 115, 5-Amino-2-(2-thienyl)-4-(3-methoxyphenyl)-6-(N-morpholinocarbonyl)thieno[2,3-d]pyrimidine]",3100 nM,20%
"CCOc1nc(-c2cccc(OC)c2)c2c(N)c(C(=O)NC(C)(C)C)sc2n1 [Example 114, tert-Butyl 5-Amino-2-ethoxy-4-(3-methoxyphenyl)-thieno[2,3-d]pyrimidine-6-carboxamide]",1900 nM,30%
"COc1cccc(-c2nc(SC)nc3sc(C(=O)N(C)C(C)C)c(N)c23)c1 [Example 113, N-Methyl-N-isopropyl 5-Amino-2-methylthio-4-(3-methoxyphenyl)-thieno[2,3-d]pyrimidine-6-carboxamide]",870 nM,50%
